Among the data in patent US7109193B2, “Tricyclic diazepines tocolytic oxytocin receptor antagonists” (Wyeth, priority 2001, dated 2006) are inhibition values, retold here.

SMILES strings stand for the structures.

In this assay the target is T1, human oxytocin receptor (Homo sapiens, UniProt P30559).
T1 construct: host or cells: CHO cells (pcDNA3.1 vector)
T1 sequence (P30559 1-389): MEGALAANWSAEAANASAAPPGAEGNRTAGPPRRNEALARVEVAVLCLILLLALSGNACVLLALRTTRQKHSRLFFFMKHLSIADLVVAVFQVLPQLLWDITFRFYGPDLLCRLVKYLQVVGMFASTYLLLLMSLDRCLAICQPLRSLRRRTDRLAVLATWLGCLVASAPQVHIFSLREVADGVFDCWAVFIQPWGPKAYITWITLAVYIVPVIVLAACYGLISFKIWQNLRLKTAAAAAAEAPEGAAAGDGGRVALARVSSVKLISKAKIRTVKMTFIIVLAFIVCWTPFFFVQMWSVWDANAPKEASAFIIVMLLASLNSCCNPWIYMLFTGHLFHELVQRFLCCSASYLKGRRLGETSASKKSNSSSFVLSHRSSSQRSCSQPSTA
The assay can be described thus: Oxytocin binding in Chinese Hamster Ovary cell membranes expressing human oxytocin receptors. Conditions: 100 nM, CHO cell membranes, [3H]oxytocin, values without parentheses, read-out: OT % inhibition @ 100% nM.
Turning to `COc1ccccc1-c1ccc(C(=O)N2Cc3ccc(C(=O)N(C)C4CCN(C)CC4)n3Cc3ccccc32)cc1C` [Example 175, 10-[(2′-Methoxy-2-methyl[1,1′-biphenyl]-4-yl)carbonyl]-N-methyl-N-(1-methyl-4-piperidinyl)-10,11-dihydro-5H-pyrrolo[2,1-c][1,4]benzodiazepine-3-carboxamide], the inhibition at 0.1 µM turned out to be 98%. Turning to `COc1ccccc1-c1ccc(C(=O)N2Cc3ccc(C(=O)N(C)C4CCN(C)CC4)n3Cc3ccccc32)cc1OC` [Example 183, 10-[(2,2′-Dimethoxy[1,1′-biphenyl]-4-yl)carbonyl]-N-methyl-N-(1-methyl-4-piperidinyl)-10,11-dihydro-5H-pyrrolo[2,1-c][1,4]benzodiazepine-3-carboxamide], the inhibition at 0.1 µM was 97%.

`COc1cc(C(=O)N2Cc3ccc(C(=O)N4CCN(CCN(C)C)CC4)n3Cc3ccccc32)ccc1-c1cccc2ccccc12` [Example 203, {4-[2-(Dimethylamino)ethyl]-1-piperazinyl}{10-[3-methoxy-4-(1-naphthyl)benzoyl]-10,11-dihydro-5H-pyrrolo[2,1-c][1,4]benzodiazepin-3-yl}methanone]: the inhibition at 0.1 µM was determined as 62%.

One may read the inhibition as the change of the read-out against control, counted positive when it falls.
